Reference: the supplement of paper PMC10331698
± gives the standard deviation of the averaged measurements.

Key:
Assay in all cases: level (log10 ratio to DMSO vehicle control); higher = higher biomarker level / cell amount than vehicle control
[1] = compound: C=CC(=O)OCC(F)(F)C(F)(F)C(F)(F)C(F)(F)C(F)(F)C(F)(F)C(F)(F)C(F)F [1H,1H,9H-Perfluorononyl acrylate]; details: in DMSO
Experimental: (§1)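 BioMAP Diversity Plus panel of 12 human primary cell co-culture systems (3C, 4H, LPS, SAg, BT, BF4T, BE3C, CASM3C, HDF3CGF, KF3CT, MyoF, Mphg). Compounds were added 1 h before stimulation and left for 24 h (MyoF 48 h; BT 72 h for soluble read-outs or 6 d for IgG). Biomarkers were read by ELISA, cytotoxicity by SRB, PBMC viability and proliferation by Alamar Blue. Each well value was divided by the mean of 8 DMSO control wells on the same plate and log10 transformed; duplicate blinded samples were tested at 4 concentrations.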

[2] = compound: C=CC(=O)OCC(F)(F)C(F)(F)C(F)(F)C(F)(F)COC(=O)C=C [1H,1H,6H,6H-Perfluorohexane-1,6-diol diacrylate]; details: 6700 nM; in DMSO
Experimental: as §1

[3] = compound: Cc1ccc(S(=O)(=O)OCC(F)(F)C(F)(F)C(F)(F)C(F)(F)C(F)(F)C(F)F)cc1 [1H,1H,7H-Perfluoroheptyl 4-methylbenzenesulfonate]; details: in DMSO
Experimental: as §1

[4] = compound: FC(F)(F)C(F)(F)C(F)(F)C(F)(F)CCI [1H,1H,2H,2H-Perfluorohexyl iodide]; details: in DMSO
Experimental: as §1

[5] = compound: FC(F)(F)COC(OCC(F)(F)F)OCC(F)(F)F [tris(Trifluoroethoxy)methane]; details: in DMSO
Experimental: as §1

[6] = compound: O=S(=O)(OCC(F)(F)F)C(F)(F)C(F)(F)C(F)(F)C(F)(F)F [2,2,2-Trifluoroethyl perfluorobutanesulfonate]; details: in DMSO
Experimental: as §1

[7] = compound: OCC(F)(F)C(F)(F)C(F)(F)C(F)(F)C(F)(F)C(F)(F)C(F)(F)C(F)(F)CO [1H,1H,10H,10H-Perfluorodecane-1,10-diol]; details: in DMSO
Experimental: as §1

Row | Test System | level (log10) ([1]; 6700 nM) | level (log10) ([1]; 20000 nM) | level (log10) ([1]; 60000 nM) | level (log10) [2] | level (log10) ([3]; 6700 nM) | level (log10) ([3]; 20000 nM) | level (log10) ([3]; 60000 nM) | level (log10) ([4]; 6700 nM) | level (log10) ([4]; 20000 nM) | level (log10) ([4]; 60000 nM) | level (log10) ([5]; 6700 nM) | level (log10) ([5]; 20000 nM) | level (log10) ([5]; 60000 nM) | level (log10) ([6]; 6700 nM) | level (log10) ([6]; 20000 nM) | level (log10) ([6]; 60000 nM) | level (log10) ([7]; 6700 nM) | level (log10) ([7]; 20000 nM) | level (log10) ([7]; 60000 nM)
1 | HDF3CGF:CXCL9/MIG | -0.0315 ± 0.025 | -0.083 ± 0.025 | -0.215 ± 0.071 | -1.14 ± 0.041 | -0.002 ± 0.0099 | 0.061 ± 0.025 | 0.048 ± 0.037 | 0.0105 ± 0.028 | 0.007 ± 0.0085 | -0.096 ± 0.016 | 0.007 ± 0.0099 | 0.002 ± 0.0071 | -0.017 ± 0.018 | -0.0075 ± 0.016 | -0.011 ± 0.014 | -0.039 ± 0.0071 | 0.012 ± 0.013 | -0.037 ± 0.014 | -0.789
2 | HDF3CGF:TIMP-2 | 0.025 ± 0.092 | -0.0355 ± 0.032 | -0.1545 ± 0.00071 | -0.104 ± 0.066 | -0.042 ± 0.081 | -0.101 ± 0.053 | -0.032 ± 0.035 | -0.0105 ± 0.013 | -0.023 ± 0.021 | -0.115 ± 0.0064 | -0.0165 ± 0.029 | -0.002 ± 0.037 | -0.0105 ± 0.005 | 0.0105 ± 0.013 | 0.0375 ± 0.021 | 0.06 ± 0.0014 | -0.006 ± 0.014 | -0.0105 ± 0.00071 | -0.095
3 | MyoF:alpha-SM Actin | -0.041 ± 0.0014 | -0.075 ± 0.011 | -0.182 ± 0.028 | -0.157 ± 0.012 | -0.052 ± 0.011 | -0.0625 ± 0.022 | -0.0765 ± 0.019 | 0.03 ± 0.064 | 0.0325 ± 0.064 | 0.043 ± 0.034 | 0.0075 ± 0.019 | 0 ± 0.011 | -0.012 ± 0.025 | -0.0265 ± 0.025 | -0.0175 ± 0.047 | -0.0235 ± 0.005 | -0.0025 ± 0.019 | -0.041 ± 0.03 | -0.395
4 | BE3C:Keratin 8/18 | -0.037 ± 0.011 | -0.0165 ± 0.005 | -0.0355 ± 0.04 | 0.0075 ± 0.005 | -0.006 ± 0.0085 | -0.006 ± 0.048 | -0.0065 ± 0.013 | 0 ± 0.0099 | -0.0095 ± 0.013 | -0.006 ± 0.0014 | -0.0035 ± 0.019 | -0.0215 ± 0.021 | 0.01 ± 0.0057 | -0.0055 ± 0.005 | -0.0075 ± 0.015 | -0.009 ± 0.0085 | -0.034 ± 0.0085 | -0.027 ± 0.0085 | -0.016
5 | lMphg:CD106/VCAM-1 | -0.03 | -0.029 ± 0.0099 | -0.0405 ± 0.0092 | -0.0445 ± 0.018 | -0.0105 ± 0.029 | 0.0045 ± 0.0021 | 0 ± 0.0071 | 0.0015 ± 0.018 | -0.0005 ± 0.016 | 0.009 ± 0.013 | 0.0065 ± 0.0035 | 0.023 ± 0.0099 | -0.0145 ± 0.0092 | -0.0355 ± 0.015 | -0.0215 ± 0.028 | -0.055 ± 0.024 | -0.008 ± 0.0014 | -0.0075 ± 0.029 | -0.802
6 | lMphg:CD62E/E-Selectin | 0 ± 0.0099 | -0.004 ± 0.02 | -0.01 ± 0.017 | -0.044 ± 0.021 | -0.0225 ± 0.0064 | 0.022 ± 0.0014 | 0.0635 ± 0.019 | -0.021 ± 0.0071 | -0.0105 ± 0.026 | 0.0315 ± 0.0064 | 0.023 ± 0.082 | -0.0245 ± 0.076 | -0.0085 ± 0.076 | 0.02 ± 0.031 | 0.0255 ± 0.033 | -0.0435 ± 0.0064 | -0.0175 ± 0.005 | -0.102 ± 0.11 | -0.8
7 | BE3C:PAI-I | -0.029 ± 0.031 | -0.003 ± 0.018 | -0.02 ± 0.011 | 0.0495 ± 0.025 | -0.0365 ± 0.019 | -0.0745 ± 0.016 | -0.057 ± 0.0099 | -0.0335 ± 0.0064 | -0.0305 ± 0.036 | -0.051 ± 0.0085 | -0.0015 ± 0.0035 | -0.0005 ± 0.00071 | -0.0045 ± 0.00071 | -0.0005 ± 0.011 | 0.003 ± 0.0085 | 0.014 ± 0.011 | 0.041 ± 0.0085 | -0.0655 ± 0.0035 | -0.192
8 | CASM3C:Serum Amyloid A | -0.014 ± 0.014 | -0.0825 ± 0.071 | -0.067 ± 0.0071 | -0.0575 ± 0.0078 | -0.0445 ± 0.021 | -0.0515 ± 0.0078 | 0.0015 ± 0.06 | -0.017 ± 0.0042 | -0.0155 ± 0.039 | 0.0305 ± 0.1 | -0.028 ± 0.027 | -0.026 ± 0.04 | 0.0045 ± 0.044 | -0.0625 ± 0.077 | -0.0375 ± 0.052 | 0.006 ± 0.031 | -0.011 ± 0.0042 | -0.016 ± 0.0057 | -0.059
9 | CASM3C:PAI-I | 0.007 ± 0.0057 | 0.0045 ± 0.0035 | -0.005 ± 0.028 | 0.0005 ± 0.0021 | -0.004 ± 0.0028 | -0.007 ± 0.0085 | -0.008 ± 0.016 | 0.0135 ± 0.022 | 0.0165 ± 0.022 | 0.0125 ± 0.044 | -0.003 ± 0.03 | 0.0015 ± 0.013 | 0.007 ± 0.0057 | -0.0075 ± 0.0092 | 0.0015 ± 0.00071 | 0.0035 ± 0.0021 | -0.0095 ± 0.0035 | -0.011 ± 0.0042 | -0.01
10 | HDF3CGF:Collagen III | -0.096 ± 0.03 | -0.102 ± 0.022 | -0.124 ± 0.016 | 0.105 ± 0.11 | -0.0605 ± 0.03 | -0.0435 ± 0.011 | -0.048 ± 0.073 | -0.0145 ± 0.021 | -0.0185 ± 0.052 | -0.035 ± 0.047 | -0.013 ± 0.0071 | -0.0205 ± 0.0092 | 0.0075 ± 0.016 | -0.0265 ± 0.018 | -0.0345 ± 0.033 | -0.0995 ± 0.037 | -0.035 ± 0.0071 | -0.094 ± 0.045 | -0.438
11 | MyoF:CD106/VCAM-1 | -0.0025 ± 0.0035 | -0.032 ± 0.0071 | -0.163 ± 0.0057 | -0.219 ± 0.035 | 0.004 ± 0.0014 | 0.023 ± 0.0014 | 0.0135 ± 0.0021 | 0.001 ± 0.0071 | -0.0135 ± 0.015 | -0.059 ± 0.014 | -0.021 ± 0.034 | -0.03 ± 0.028 | -0.034 ± 0.0057 | -0.01 ± 0.011 | 0.026 ± 0.014 | -0.0075 ± 0.0021 | 0.0025 ± 0.021 | -0.0025 ± 0.025 | -0.19
12 | CASM3C:CD87/uPAR | 0.0315 ± 0.005 | 0.017 ± 0.042 | 0.005 ± 0.0057 | -0.0235 ± 0.013 | -0.03 ± 0.024 | -0.02 ± 0.016 | -0.004 ± 0.0099 | -0.0015 ± 0.018 | -0.024 ± 0.051 | -0.0345 ± 0.033 | -0.0095 ± 0.018 | -0.007 ± 0.023 | -0.021 ± 0.0085 | -0.047 ± 0.064 | -0.0215 ± 0.059 | -0.048 ± 0.033 | -0.024 ± 0.016 | -0.033 ± 0.031 | -0.116
13 | HDF3CGF:CD54/ICAM-1 | -0.021 ± 0.018 | -0.0435 ± 0.00071 | -0.0765 ± 0.042 | -0.175 ± 0.038 | 0.0005 ± 0.016 | 0.0385 ± 0.042 | 0.026 ± 0.055 | -0.023 ± 0.013 | -0.0005 ± 0.005 | -0.0085 ± 0.016 | -0.0195 ± 0.00071 | -0.013 ± 0.034 | -0.008 ± 0.0057 | -0.0105 ± 0.018 | -0.0025 ± 0.022 | -0.0285 ± 0.028 | 0.002 ± 0.027 | 0.005 ± 0.0028 | -0.753
14 | MyoF:CXCL8/IL-8 | -0.024 ± 0.031 | -0.006 ± 0.03 | 0.0205 ± 0.013 | -0.049 ± 0.035 | -0.0065 ± 0.0078 | -0.162 ± 0.022 | -0.115 ± 0.025 | 0.065 ± 0.1 | 0.078 ± 0.1 | 0.142 ± 0.12 | -0.0155 ± 0.035 | -0.0125 ± 0.0078 | 0.0195 ± 0.015 | -0.003 ± 0.064 | 0.0405 ± 0.057 | 0.013 ± 0.09 | -0.0285 ± 0.0021 | -0.033 ± 0.013 | 0.025
15 | lMphg:CD40 | -0.0205 ± 0.005 | -0.022 ± 0.018 | -0.032 ± 0.021 | -0.051 ± 0.024 | -0.009 ± 0.016 | -0.0175 ± 0.0092 | -0.0135 ± 0.005 | -0.017 ± 0.014 | -0.0245 ± 0.029 | -0.018 ± 0.025 | -0.0235 ± 0.044 | -0.0135 ± 0.012 | -0.0265 ± 0.032 | -0.0015 ± 0.00071 | 0.0085 ± 0.04 | -0.007 ± 0.017 | -0.0285 ± 0.0064 | -0.0695 ± 0.032 | -0.536
